Data: PubChem BioAssay AID2060513 (Molecular Pharmacology Branch, DTP, NCI, 2025)
Several values for one entry are separate records, joined by “and”; a condition that tells them apart may be missing. Identical values can stand only once.

System: 299254-011-R-J1-PDC complex spheroids viability
Test: Anticancer human tumor 299254-011-R-J1-PDC patient-derived melanoma cell line growth inhibition [GQUAD]
Settings: for viability, T/C: stronger effect = lower value
Description: DNA G-quadruplex Stabilizer Agents in Combinations in Complex Spheroids
A high-throughput screen of multi-cell type tumor spheroids was designed to identify active combinations of DNA G-quadruplex stabilizer agents and targeted small molecules. Complex spheroids include a stromal component modeled by human endothelial cells (HUVEC) and fibroblasts modeled by human mesenchymal stem cells (MSCs). The concentration ranges selected for each drug and investigational agent were based upon clinically achievable concentrations if the clinical Cmax of the agent was known.
Compounds. The drugs and investigational agents: pidnarulex (CX-5461; NSC782164), APTO-253 (NSC789042), BRACO-19 (NSC847499), peposertib (NSC802822), ceralasertib (NSC780249), elimusertib (NSC800525), camonsertib (NSC841442), AZD-1390 (NSC803789), olaparib (NSC753686), talazoparib (NSC767125), ART-558 (NSC835418), sotorasib (NSC818433), MRTX-1133 (NSC836407), SN-38 (NSC673596), topotecan (NSC609699), etoposide (NSC141540), doxorubicin (NSC123127), gemcitabine (NSC613327), 5-fluorouracil (NSC19893), paclitaxel (NSC125973), vemurafenib (NSC761431), panobinostat (NSC761190), R-306465 (JNJ-16241199; NSC773264), adavosertib (NSC754352), TP-3654 (NSC805149), carboplatin (NSC241240), KSQ-4279 (NSC840948), and staurosporine (NSC755774) were obtained from the National Cancer Institute (NCI) Developmental Therapeutics Program Chemical Repository (34). The FDA-approved anticancer drug set is available from the NCI Developmental Therapeutics Program. […] The stock solutions were prepared in dimethyl sulfoxide (DMSO, Sigma-Aldrich, St. Louis, MO, cat. D2650) at 800-fold the tested concentration and stored at -70 degrees C prior to their use. All drugs and investigational agents were tested over a range starting from a high concentration at or near the clinical Cmax and decreasing in half-log increments. If the clinical Cmax for an agent had not been determined, the highest concentration tested was 10 microM.
2.3 Cell Culture. All cells were maintained in an incubator at 37 degrees C and 5% CO2 with 95% humidity. The PDC lines were cultured according to standard operating procedures established by the NCI PDMR. All PDCs were thawed and cultured in Matrigel-coated flasks prepared with a working solution of 1X Ham's F-12 nutrient mix, without supplementation (Invitrogen, cat. 11765054), 100 U/mL penicillin-streptomycin (Invitrogen, cat. 15140122), and 2.5% Matrigel (Corning Inc., cat. 354248) for the first three passages. The 857933-349-R-J2-PDC line was cultured in 6C/Colon 1B media, which includes advanced DMEM/F-12 (Thermo Fisher Scientific, cat. 12634028), 10 mM HEPES (Thermo Fisher Scientific, cat. 15630080), 1X GlutaMAX supplement (Thermo Fisher Scientific, cat. 35050061), 0.1 mg/mL primocin (InvivoGen, cat. ant-pm-2), 10% defined fetal bovine serum, heat inactivated (HyClone Laboratories Inc., cat. SH30070.03HI), 50% L-WRN conditioned media (ATCC, cat. CRL-3276), 1.25 mM N-Acetyl-L-cysteine (Sigma-Aldrich, cat. A9165), 10 mM nicotinamide (Sigma-Aldrich, cat. N0636), 1X B-27 supplement (Thermo Fisher Scientific, cat. 17504044), 1X N-2 supplement (Thermo Fisher Scientific, cat. 17502048), 10 microM Y-27632 dihydrochloride (Tocris Bioscience, cat. 1254), and 50 ng/mL human EGF recombinant protein (Thermo Fisher Scientific, cat. PHG0311). The 485176-168-R4-J1-PDC line was cultured in Panc media, which includes all 6C/Colon 1B media components plus 100 ng/mL human FGF-10 (Thermo Fisher Scientific, cat. 100-26), 500 nM SB-431542 (Selleckchem, cat. S1067), and gastrin (Tocris, cat. 3006).
[…]
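Further: spheroids exposed to the agents for seven days before readout.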
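Wherever viability, T/C is given: percent viability relative to DMSO vehicle control wells = 100%.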

**Q.** For `CCCS(=O)(=O)Nc1ccc(F)c(C(=O)c2c[nH]c3ncc(-c4ccc(Cl)cc4)cc23)c1F` + Cc1[nH]c2ccc(F)cc2c1-c1nc2c3cccnc3c3ncccc3c2[nH]1, which IC50 (curve of first compound, second compound 0.0316 µM) is on record?
**A.** 8.45 µM

**Q.** And the IC50 (curve of first compound, second compound 0.1 µM)?
**A.** 8.51 µM

**Q.** What about the IC50 (curve of first compound, second compound 0.316 µM) of the same molecule?
**A.** 8.05 µM

**Q.** What about the IC50 (curve of first compound, second compound 1 µM) of the same molecule?
**A.** 7.26 µM

**Q.** And the IC50 (curve of first compound, second compound 3.16 µM)?
**A.** 7.74 µM

**Q.** What about the IC50 (curve of first compound, second compound 10 µM) of the same molecule?
**A.** 7.38 µM

**Q.** What about the viability, T/C (second compound 0.0316 µM, first compound 0.0316 µM) of the same molecule?
**A.** 91.6%

**Q.** What about the viability, T/C (second compound 0.0316 µM, first compound 0.1 µM) of the same molecule?
**A.** 109%

**Q.** What about the viability, T/C (second compound 0.0316 µM, first compound 0.316 µM) of the same molecule?
**A.** 109%

**Q.** What about the viability, T/C (second compound 0.0316 µM, first compound 1 µM) of the same molecule?
**A.** 88.3%

**Q.** What about the viability, T/C (second compound 0.0316 µM, first compound 3.16 µM) of the same molecule?
**A.** 76.8%

**Q.** What about the viability, T/C (second compound 0.0316 µM, first compound 10 µM) of the same molecule?
**A.** 45.4%

**Q.** And the viability, T/C (second compound 0.1 µM, first compound 0.0316 µM)?
**A.** 98.6%

**Q.** And the viability, T/C (second compound 0.1 µM, first compound 0.1 µM)?
**A.** 110%

**Q.** What about the viability, T/C (second compound 0.1 µM, first compound 0.316 µM) of the same molecule?
**A.** 100%

**Q.** And the viability, T/C (second compound 0.1 µM, first compound 1 µM)?
**A.** 82.7%

**Q.** What about the viability, T/C (second compound 0.1 µM, first compound 3.16 µM) of the same molecule?
**A.** 105%

**Q.** What about the viability, T/C (second compound 0.1 µM, first compound 10 µM) of the same molecule?
**A.** 41.9%

**Q.** What about the viability, T/C (second compound 0.316 µM, first compound 0.0316 µM) of the same molecule?
**A.** 86.6%

**Q.** What about the viability, T/C (second compound 0.316 µM, first compound 0.1 µM) of the same molecule?
**A.** 123%

**Q.** And the viability, T/C (second compound 0.316 µM, first compound 0.316 µM)?
**A.** 110%

**Q.** And the viability, T/C (second compound 0.316 µM, first compound 1 µM)?
**A.** 108%

**Q.** And the viability, T/C (second compound 0.316 µM, first compound 3.16 µM)?
**A.** 90.7%

**Q.** What about the viability, T/C (second compound 0.316 µM, first compound 10 µM) of the same molecule?
**A.** 40.4%

**Q.** What about the viability, T/C (second compound 1 µM, first compound 0.0316 µM) of the same molecule?
**A.** 94.8%

**Q.** And the viability, T/C (second compound 1 µM, first compound 0.1 µM)?
**A.** 103%

**Q.** What about the viability, T/C (second compound 1 µM, first compound 0.316 µM) of the same molecule?
**A.** 84.1%

**Q.** And the viability, T/C (second compound 1 µM, first compound 1 µM)?
**A.** 107%

**Q.** What about the viability, T/C (second compound 1 µM, first compound 3.16 µM) of the same molecule?
**A.** 79.7%

**Q.** What about the viability, T/C (second compound 1 µM, first compound 10 µM) of the same molecule?
**A.** 38.6%

**Q.** And the viability, T/C (second compound 3.16 µM, first compound 0.0316 µM)?
**A.** 91.4%

**Q.** What about the viability, T/C (second compound 3.16 µM, first compound 0.1 µM) of the same molecule?
**A.** 109%

**Q.** And the viability, T/C (second compound 3.16 µM, first compound 0.316 µM)?
**A.** 92.3%

**Q.** What about the viability, T/C (second compound 3.16 µM, first compound 1 µM) of the same molecule?
**A.** 115%

**Q.** What about the viability, T/C (second compound 3.16 µM, first compound 3.16 µM) of the same molecule?
**A.** 82.6%

**Q.** What about the viability, T/C (second compound 3.16 µM, first compound 10 µM) of the same molecule?
**A.** 40.7%

**Q.** What about the viability, T/C (second compound 10 µM, first compound 0.0316 µM) of the same molecule?
**A.** 81.3%

**Q.** What about the viability, T/C (second compound 10 µM, first compound 0.1 µM) of the same molecule?
**A.** 108%

**Q.** And the viability, T/C (second compound 10 µM, first compound 0.316 µM)?
**A.** 101%

**Q.** What about the viability, T/C (second compound 10 µM, first compound 1 µM) of the same molecule?
**A.** 105%

**Q.** What about the viability, T/C (second compound 10 µM, first compound 3.16 µM) of the same molecule?
**A.** 88.8%

**Q.** What about the viability, T/C (second compound 10 µM, first compound 10 µM) of the same molecule?
**A.** 35.8%

**Q.** Which viability, T/C (compound 0.0316 µM) does the source give for `CC(C)n1c(=O)n(C)c2cnc3cc(F)c(-c4ccc(OCCCN5CCCCC5)nc4)cc3c21` here?
**A.** 104% and 100% and 97%

**Q.** And the viability, T/C (compound 0.1 µM)?
**A.** 87.8% and 78.1% and 79%

**Q.** What about the viability, T/C (compound 0.316 µM) of the same molecule?
**A.** 102% and 101% and 90.2%

**Q.** And the viability, T/C (compound 1 µM)?
**A.** 104% and 76.4% and 83.5%

**Q.** And the viability, T/C (compound 3.16 µM)?
**A.** 93% and 75% and 78.9%

**Q.** What about the viability, T/C (compound 10 µM) of the same molecule?
**A.** 55.8% and 48.2% and 48.6%

**Q.** And the IC50 (curve of compound)?
**A.** > 10 µM and 9.52 µM and 9.66 µM

**Q.** `O=C(c1cc(Cc2n[nH]c(=O)c3ccccc23)ccc1F)N1CCN(C(=O)C2CC2)CC1` was tested. Which viability, T/C (compound 0.0316 µM) did it give?
**A.** 94.2% and 117% and 81.5%

**Q.** And the viability, T/C (compound 0.1 µM)?
**A.** 111% and 86.5% and 85.5%

**Q.** What about the viability, T/C (compound 0.316 µM) of the same molecule?
**A.** 101% and 84.9% and 95.2%

**Q.** And the viability, T/C (compound 1 µM)?
**A.** 115% and 101% and 91.1%

**Q.** What about the viability, T/C (compound 3.16 µM) of the same molecule?
**A.** 132% and 80.7% and 87.9%

**Q.** What about the viability, T/C (compound 10 µM) of the same molecule?
**A.** 97.2% and 71.2% and 88.4%

**Q.** What about the IC50 (curve of compound) of the same molecule?
**A.** > 10 µM

**Q.** How did the viability, T/C (compound 0.0316 µM) turn out when `C#Cc1c(F)ccc2cc(O)cc(-c3ncc4c(N5CC6CCC(C5)N6)nc(OCC56CCCN5CC(F)C6)nc4c3F)c12` (stereo not drawn) was run?
**A.** 117% and 84.2% and 84%

**Q.** What about the viability, T/C (compound 0.1 µM) of the same molecule?
**A.** 109% and 86.1% and 98.1%

**Q.** And the viability, T/C (compound 0.316 µM)?
**A.** 90.8% and 85.1% and 95.8%

**Q.** And the viability, T/C (compound 1 µM)?
**A.** 118% and 83.9% and 81%

**Q.** And the viability, T/C (compound 3.16 µM)?
**A.** 86.5% and 93.7% and 84.6%

**Q.** And the viability, T/C (compound 10 µM)?
**A.** 82.7% and 72.7% and 67.4%

**Q.** And the IC50 (curve of compound)?
**A.** > 10 µM
